In patent publication US10265287B2, “Methods of reducing triglycerides and LDL-C” (Amarin Pharmaceuticals Ireland Limited, priority 2009, dated 2019):

Experiment: Lipid peroxide (LOOH) formation in model membranes, CHOD-iodide colorimetric assay
Assay type: biochemical
Settings: cholesterol-enriched membranes
Protocol: An experiment was conducted to test EPA, DHA, EPA+DHA with and without with atorvastatin in model membranes enriched with PUFAs and cholesterol at levels that reproduce disease or high CV-risk conditions (i.e. hypercholesterimia). […] EPA and DHA were tested individually at a fixed concentration of 10.0 uM or in combination at 5.65 μM and 4.35 μM (EPA and DHA, respectively), which is a mole ratio of 1.3:1. Separate and combined effects of these agents on lipid peroxide (LOOH) formation were examined at cholesterol-to-phospholipid (C/P) mole ratios of 0.5:1, 1.0:1 and 1.5:1. Levels of lipid hydroperoxides were also measured for EPA, DPH and EPA/DPH in cholesterol-enriched membrane prepared in the absence and presence of atorvastatin. […] To ensure spectrophotometric readings within the optimum absorbance range, sample volumes taken for measurement of lipid peroxide formation were adjusted for length of peroxidation and range between 100 and 10 μl. […] Absorbances were measured against a CHOD blank at 365 nm using a Beckman DU-640 spectrophotometer. The CHOD colorimetric assay is based on the oxidation of iodide (I^-) by lipid hydroperoxides (LOOH) and proceeds according to the following reaction scheme: […]3^- The quantity of triiodide anion (I3^-) liberated in this reaction is directly proportional to the amount of lipid hydroperoxides present in the membrane sample. […]

## CCC=CCC=CCC=CCC=CCC=CCCCC(=O)O [EPA, eicosa-5,8,11,14,17-pentaenoic acid]
EPA and DHA each tested at 10.0 uM
  antioxidant benefit compared with DHA: superior to that observed with DHA
Autoxidation at 37° C., EPA tested at 10.0 uM
  antioxidant benefit (lipid peroxide (LOOH) formation): potent antioxidant benefit
